Experimental data from ChEMBL document CHEMBL4610008, “Thiophene bioisosteres of GluN2B selective NMDA receptor antagonists: Synthesis and pharmacological evaluation of [7]annuleno[b]thiophen-6-amines” (Bioorg Med Chem, 2020).

How the values were obtained:
[1] = Selectivity index, ratio of Ki for sigma1 receptor in guinea pig brain membranes to Ki for human GluN2B expressed in mouse L(tk-) cell membranes co-expressing GluN1a; assay type: cell-based
[2] = target: Sigma non-opioid intracellular receptor 1 (Cavia porcellus, UniProt Q60492); assay: Displacement of [3H]-(+)-pentazocine from sigma1 receptor in guinea pig brain membranes incubated for 120 mins by scintillation counting method; assay type: cell membranes, Membrane
[3] = Selectivity index, ratio of Ki for sigma2 receptor in rat liver membranes to Ki for human GluN2B expressed in mouse L(tk-) cell membranes co-expressing GluN1a; assay type: cell-based
[4] = target: Glutamate receptor ionotropic, NMDA 2B (Homo sapiens, UniProt Q05586+Q13224); assay: Displacement of [3H]ifenprodil from human recombinant GluN2B expressed in mouse L(tk-) cell membranes co-expressing GluN1a incubated for 120 mins by scintillation counting method
[5] = target: T1, Sigma intracellular receptor 2 (Rattus norvegicus, UniProt Q5U3Y7); assay: Displacement of [3H]-di-o-tolylguanidine from sigma2 receptor in rat liver membranes incubated for 120 mins in the presence of sigma1 receptor ligand (+)-pentazocine by scintillation counting method; assay type: cell membranes, Membrane
T1 sequence (Q5U3Y7 whole entry): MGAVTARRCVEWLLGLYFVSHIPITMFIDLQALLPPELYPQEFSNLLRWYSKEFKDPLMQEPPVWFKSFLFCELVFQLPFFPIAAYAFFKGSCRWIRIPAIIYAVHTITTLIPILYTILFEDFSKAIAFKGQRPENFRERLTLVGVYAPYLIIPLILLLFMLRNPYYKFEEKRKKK

[6] = Cytoprotection against glutamate/glycine-induced cytotoxicity against mouse LTK cells expressing GluN1a/GluN2B assessed as inhibition of cell death incubated for 12 hrs by LDH assay; assay type: functional, cell-based

Sigma non-opioid intracellular receptor 1, sequence (Q60492 whole entry): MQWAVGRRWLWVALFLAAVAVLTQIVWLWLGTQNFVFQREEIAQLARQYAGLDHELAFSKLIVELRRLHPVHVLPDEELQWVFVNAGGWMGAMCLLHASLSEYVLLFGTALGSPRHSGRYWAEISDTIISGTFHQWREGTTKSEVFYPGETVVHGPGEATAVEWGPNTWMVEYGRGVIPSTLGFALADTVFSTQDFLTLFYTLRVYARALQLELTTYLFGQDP
Glutamate receptor ionotropic, NMDA 2B, sequence (Q13224 whole entry, one chain of several): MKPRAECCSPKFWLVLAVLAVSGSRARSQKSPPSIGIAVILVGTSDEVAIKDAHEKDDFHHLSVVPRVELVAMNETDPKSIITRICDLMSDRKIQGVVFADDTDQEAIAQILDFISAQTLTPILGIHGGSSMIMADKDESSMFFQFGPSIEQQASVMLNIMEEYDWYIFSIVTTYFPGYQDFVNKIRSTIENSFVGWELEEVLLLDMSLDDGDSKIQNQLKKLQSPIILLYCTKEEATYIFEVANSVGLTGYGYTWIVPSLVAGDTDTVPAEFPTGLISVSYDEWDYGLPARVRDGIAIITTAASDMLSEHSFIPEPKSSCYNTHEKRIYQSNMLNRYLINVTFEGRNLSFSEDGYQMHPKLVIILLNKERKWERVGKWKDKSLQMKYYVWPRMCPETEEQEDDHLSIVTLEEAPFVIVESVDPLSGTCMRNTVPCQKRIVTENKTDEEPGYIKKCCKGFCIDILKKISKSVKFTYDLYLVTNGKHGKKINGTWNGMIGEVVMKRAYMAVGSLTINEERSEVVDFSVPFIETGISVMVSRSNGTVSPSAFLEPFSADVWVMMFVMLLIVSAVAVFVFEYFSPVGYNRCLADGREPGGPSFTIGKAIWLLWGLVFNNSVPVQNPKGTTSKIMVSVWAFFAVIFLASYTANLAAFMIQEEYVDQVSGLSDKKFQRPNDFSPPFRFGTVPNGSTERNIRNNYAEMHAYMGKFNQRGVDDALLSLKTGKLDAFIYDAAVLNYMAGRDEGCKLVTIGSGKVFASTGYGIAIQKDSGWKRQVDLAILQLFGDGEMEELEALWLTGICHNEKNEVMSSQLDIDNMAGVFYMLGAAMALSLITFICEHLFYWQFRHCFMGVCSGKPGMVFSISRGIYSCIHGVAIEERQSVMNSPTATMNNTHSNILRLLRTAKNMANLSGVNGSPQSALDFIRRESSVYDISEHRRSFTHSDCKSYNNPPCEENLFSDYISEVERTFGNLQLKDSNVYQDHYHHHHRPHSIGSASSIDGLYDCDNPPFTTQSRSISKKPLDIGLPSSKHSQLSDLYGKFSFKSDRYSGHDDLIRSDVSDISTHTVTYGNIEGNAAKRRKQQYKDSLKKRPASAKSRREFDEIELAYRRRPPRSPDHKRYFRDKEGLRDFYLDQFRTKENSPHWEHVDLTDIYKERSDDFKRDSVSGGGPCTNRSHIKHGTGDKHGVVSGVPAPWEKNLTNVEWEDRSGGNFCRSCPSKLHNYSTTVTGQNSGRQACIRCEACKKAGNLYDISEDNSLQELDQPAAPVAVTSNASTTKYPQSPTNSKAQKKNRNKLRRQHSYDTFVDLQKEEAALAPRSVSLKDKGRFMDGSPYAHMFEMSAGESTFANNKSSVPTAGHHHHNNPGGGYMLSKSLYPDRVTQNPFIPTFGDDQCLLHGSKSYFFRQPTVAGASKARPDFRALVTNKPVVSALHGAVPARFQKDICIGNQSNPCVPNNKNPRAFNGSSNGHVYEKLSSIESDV

Row | Ki [2] [nM] | Ki [4] [nM] | Ki [5] [nM] | SMILES | Ratio Ki [1] | Ratio Ki [3] | IC50 [6] [nM]
1 | 187 | 5.9 | 5.1 | c1ccc(CCCNC2CCc3ccsc3CC2)cc1 (configuration not stated) | – | – | –
2 | 84 | 764 | 73 | OCc1cc2c(s1)CCC(NCCCCc1ccccc1)CC2 (configuration not stated) | – | – | –
3 | 49 | 72 | 91 | CN(Cc1ccccc1)C1CCc2ccsc2CC1 (configuration not stated) | – | – | –
4 | 62 | 11 | 5.7 | c1ccc(CCCCNC2CCc3ccsc3CC2)cc1 (configuration not stated) | – | – | –
5 | 61 | 183 | 30 | OCc1cc2c(s1)CCC(NCCCc1ccccc1)CC2 (configuration not stated) | – | – | –
6 | – | 2.1 | – | Clc1ccc2c(c1)CCC(NCCCc1ccccc1)CC2 (configuration not stated) | – | – | –
7 | 56 | 726 | 48 | CN(CCc1ccccc1)C1CCc2cc(CO)sc2CC1 (configuration not stated) | – | – | –
8 | 10 | 6 | 13 | CN(CCCc1ccccc1)C1CCc2ccsc2CC1 (configuration not stated) | 2 | 2 | –

Continued, molecule first:

Row | SMILES | Ki [2] [nM] | Ki [4] [nM] | Ki [5] [nM] | Ratio Ki [1] | Ratio Ki [3] | IC50 [6] [nM]
9 | CN(CCCCc1ccccc1)C1CCc2ccsc2CC1 (configuration not stated) | 17 | 9 | 12 | 1.5 to 2 | 1.5 to 2 | –
10 | Brc1cc2c(s1)CCC(NCCCCc1ccccc1)CC2 (configuration not stated) | 14 | 23 | 13 | – | – | –
11 | CN(CCCc1ccccc1)C1CCc2cc(CO)sc2CC1 (configuration not stated) | 6.4 | 141 | 21 | – | – | –
12 | c1ccc(CCNC2CCc3ccsc3CC2)cc1 (configuration not stated) | 133 | 33 | 56 | – | – | –
13 | CCN(CCc1ccccc1)C1CCc2ccsc2CC1 (configuration not stated) | 59 | 196 | 141 | – | – | –
14 | CCN(Cc1ccccc1)C1CCc2ccsc2CC1 (configuration not stated) | 60 | 61 | 149 | – | – | –
15 | Oc1ccc(-c2cc3c(s2)CCC(NCCCc2ccccc2)CC3)cc1 (configuration not stated) | 181 | 60 | 63 | – | – | –
16 | Brc1cc2c(s1)CCC(NCCCc1ccccc1)CC2 (configuration not stated) | 41 | 13 | 43 | 3 | 3 | –
17 | CN(CCc1ccccc1)C1CCc2ccsc2CC1 (configuration not stated) | 42 | 130 | 63 | – | – | –
18 | COc1ccc2c(c1)CC[C@H](NCCCc1ccccc1)C[C@@H]2O (relative stereo) | – | – | – | – | – | 12
19 | CCN(CCCCc1ccccc1)C1CCc2ccsc2CC1 (configuration not stated) | 12 | 33 | 46 | – | – | –
20 | CCN(CCCc1ccccc1)C1CCc2ccsc2CC1 (configuration not stated) | 17 | 51 | 33 | – | – | –
